{"source": "patent US7723021B2", "about": "“Methods for treating lentivirus infections” (The J. David Gladstone Institutes, priority 2003, dated 2010)", "key": {"[1]": {"system": "Vif-mediated depletion of APOBEC3G-HA in 293T cells", "experiment": "Proteasome inhibitor panel in 293T cells transiently transfected with APOBEC3G-HA and Vif, immunoblot", "type": "cell-based", "details": "12.5 μM, 15 hours", "method": "293T cells were transfected with the indicated amounts of expression vector DNA using the calcium phosphate method. Lysis buffers used for immunoblotting were (1) 100-400 mM NaCl, 50 mM Hepes, 0.2% NP40, 0-5 mM EDTA, 0.1 mM PMSF, plus complete protease inhibitor cocktail (Roche)(1 tablet/50 ml buffer) or (2) 50 mM Hepes, pH 7.2, 135 mM NaCl, 1% Triton X-100, 0.5% deoxycholate, 10% glycerol, 1 mM EDTA, 1× protease inhibitor cocktail (Calbiochem). Samples were analyzed using standard SDS-PAGE techniques.\nFor the proteasome inhibitor experiments in transiently transfected cells, 293T cells were transiently transfected with 0.1 μg of APOBEC3G-HA DNA, 2 μg of control vector DNA and 2 μg of either pcDNA3.1 Vif DNA vector or an additional 2 μg of control vector DNA. Twenty-four hours after transfection, the cells were treated with the indicated inhibitor and harvested 15 hours later. For the proteasome inhibitor experiments using infected H9 cells, H9 cells were infected by spinoculation as described above. Forty-four hours after infection, the cells were treated for 16 hours with either dimethylsulfoxide (DMSO) (0.1%) or 0.25 μM epoxomicin. All of the inhibitors (ALLN, MG132, epoxomicin, Calpain Inhibitor III, and clasto-Lactacystin-β-Lactone) were purchased from CalBiochem and were dissolved in DMSO.\nTo confirm this finding in a different system, a similar experiment was performed using 293T cells transiently transfected with an APOBEC3G-HA expression vector and either a Vif expression vector or a control vector. Twenty-four hours after transfection the cells were treated with a panel of different proteasome inhibitors for a 15-hour period. It was observed that the broadly acting proteasome inhibitors MG132 (12.5 μM) and ALLN (25 μM) as well as the more specific proteasome inhibitor clasto-Lactacystin-β-Lactone ([…], 20 μM) enhanced the levels of APOBEC3G-HA in the presence of Vif when compared to the diluent control sample (0.1% DMSO) (FIG. 8C, lanes 7 through 12).\nFIG. 8A-C. Vif shortens the half-life of APOBEC3G, and proteasome inhibitors partially block the intracellular depletion of APOBEC3G-HA. (A) Pulse-Chase Radiolabeling. HEK 293 cells transiently transfected with APOBEC3G-HA and Vif or control vector DNA were pulse-labeled for 30 min. The initial pulse-labeled (t=0) samples were harvested, and the remaining samples were incubated with chase media for the indicated time points. After immunoprecipitation with anti-HA antibody, the samples were analyzed by SDS-PAGE and the gels were subjected to autoradiography. The relative intensity of the bands were quantified and the Vif (+) and Vif (−) samples were normalized to 1 and graphed (FIG. 8, right side). The T1/2 of APOBEC3G was 1.9 hours in the presence of Vif and 10 hours in the absence of Vif. (B) Proteasome inhibitor studies using infected H9 cells. Mock or HIV-1 wt-infected H9 cells were treated with the broadly active proteasome inhibitor epoxomicin (0.25 μM) or DMSO (0.1%) 44 hours after infection. Sixteen hours following treatment, the cells were harvested; and whole cell lysates were prepared by boiling the cells in Laemmli lysis buffer. Note that Epoxomicin caused an increase in endogenous APOBEC3G levels in the infected sample (compare lane 2 with lane 1). (C) Proteasome inhibitor studies using transiently-transfected 293T cells. Twenty-four hours following transfection of 293T cells with 0.1 μg APOBEC3G and 2 μg Vif or control vector DNA, the cells were treated with the indicated concentration of inhibitor for 15 hours. APOBEC3G-HA levels were elevated in the presence of the proteasome inhibitors MG132, ALLN, and clasto-lactacystin-β-lactone (lanes 8-11), but not in the presence of calpain inhibitor III (lane 12)."}, "[2]": {"system": "Vif-induced degradation of polyubiquitylated APOBEC3G", "experiment": "293T cells cotransfected with APOBEC3G-HA, His-ubiquitin and Vif, with MG132, anti-HA immunoblot", "type": "cell-based", "details": "MG132 for the final 6 hours of culture", "method": "To obtain further insight into the mechanism of Vif-induced degradation of APOBEC3G, it was investigated whether APOBEC3G is modified by ubiquitylation. APOBEC3G and His-ubiquitin expression vectors (Treier et al., 1994) were cotransfected into 293T cells in the presence or absence of Vif expression vector. After 48 hours in culture, cellular lysates were prepared. […] Immunoblotting of lysates prepared in the absence of APOBEC3G-HA confirmed that anti-HA antibodies selectively reacted with modified forms of APOBEC3G (FIG. 7C, lane 10). Coexpression of Vif was associated with a complete loss of these polyubiquitylated APOBEC3G species as well as diminished expression of unmodified APOBEC3G (FIG. 7C, lanes 6 and 8). To investigate whether the 26S proteasome mediated Vif-induced degradation of these polyubiquitylated APOBEC3G protein species, parallel experiments were performed in the presence of the proteasome inhibitor, MG132. […] However, it was also observed in multiple experiments that one of the many APOBEC3G degradation products appearing in Vif-expressing cells increased after the addition of MG132 (FIG. 7C, compare lanes 7 and 8). These findings raise the possibility that Vif action may involve multiple pathways including the targeting of select proteolytic fragments of APOBEC3G for degradation by the 26S proteasome.\nFIG. 7. HIV-1 Vif induces degradation of APOBEC3G, and polyubiquitylated forms of APOBEC3G form a major target for Vif induced degradation. (A and B) Vif promotes degradation or extensive proteolysis of APOBEC3G as reflected by the loss of both N- and C-terminal immunoreactive epitopes. Graded amounts of expression vector DNA encoding HA-APOBEC3G or APOBEC3G-HA were co-transfected with and without Vif expression vector DNA into 293T cells. Cellular lysates prepared from these cultures were analyzed by immunoblotting with anti-HA antibodies. […] Note that Vif expression induces a loss of anti-HA immunoreactivity regardless of whether the HA epitope is positioned at the N- or C-terminus of APOBEC3G. (C) APOBEC3G is polyubiquitylated and Vif induces degradation of (Ub)n-APOBEC3G apparently by a proteasome-independent mechanism. 293T cells were cotransfected with APOBEC3G-HA and his-ubiquitin expression vectors in the presence or absence of Vif expression vector. 48 hours later, cellular lysates were prepared. As indicated, select cultures were supplemented with the proteasome inhibitor, MG132, for the final 6 hours of culture. Lysates were analyzed by immunoblotting with anti-HA antibodies. […] In addition to the polyubiquitylated forms of APOBEC3G-HA, degradation products of APOBEC3G-HA were apparent both in the presence and absence of Vif expression."}}, "note": "Entries after “also recorded” stand apart in the source; their conditions may differ. Residues, ends and D or L forms follow the SMILES beside them. *: point of attachment. Cbz = O=C(OCc1ccccc1)*"}
{"smiles": "CC(C)C[C@@H](C=O)NC(=O)[C@H](CC(C)C)NC(=O)[C@H](CC(C)C)NC(=O)OCc1ccccc1", "note": "[MG132] (Cbz-Leu-Leu-Leu-aldehyde)", "values": [{"measurement": "levels of APOBEC3G-HA in the presence of Vif compared to diluent control (0.1% DMSO)", "setting": "[1]", "value": "enhanced; also recorded: elevated"}, {"measurement": "Vif-dependent disappearance of polyubiquitylated APOBEC3G", "setting": "[2]", "value": "did not block; also recorded: not blocked"}, {"measurement": "accumulation of polyubiquitylated proteins within the cells", "setting": "[2]", "value": "increased accumulation"}, {"measurement": "levels of unmodified APOBEC3G in the presence of Vif", "setting": "[2]", "value": "did not block the Vif-dependent disappearance of polyubiquitylated APOBEC3G or increase levels of the unmodified protein"}, {"measurement": "one of the APOBEC3G degradation products in Vif-expressing cells", "setting": "[2]", "value": "increased in quantity"}]}
